Assay results published in patent US6875884B1, “Urea derivatives as inhibitors for CCR-3 receptor” (Kirin Beer Kabushiki Kaisha, priority 1999, dated 2005).

Columns and labels:
[1] = test system: collagen-induced arthritis; assay: Type II collagen-induced arthritis in mice, clinical score; assay type: in vivo; conditions: male DBA/1 mice, 20 mg/kg per day subcutaneously starting at 2nd immunization, versus control vehicle
CCR-3 = target: T1, CCR-3 (Homo sapiens, UniProt P51677); assay: Inhibition of eotaxin-induced intracellular calcium mobilization in CCR-3 transfectant cells (CCR3/HEK293); assay type: cell-based; set-up: expressed in transfected cells; conditions: compound 6.25 μg/ml, eotaxin 10 nM
T1 sequence (P51677 1-355): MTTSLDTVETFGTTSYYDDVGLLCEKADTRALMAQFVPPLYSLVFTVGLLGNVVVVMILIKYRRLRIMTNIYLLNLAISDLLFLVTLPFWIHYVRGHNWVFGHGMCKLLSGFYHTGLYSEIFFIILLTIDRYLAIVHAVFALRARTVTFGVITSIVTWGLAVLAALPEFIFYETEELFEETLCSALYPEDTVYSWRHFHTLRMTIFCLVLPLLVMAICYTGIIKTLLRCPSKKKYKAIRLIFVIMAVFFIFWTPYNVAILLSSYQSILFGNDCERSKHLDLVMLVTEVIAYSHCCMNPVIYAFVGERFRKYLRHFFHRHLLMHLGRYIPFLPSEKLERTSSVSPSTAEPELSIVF
Experimental: Compounds 93-162 used in this assay were synthesized by using the method described in Example 6, and Compounds 168-170 were synthesized by using the method described in Example 6 except for the use of isothiocyanates instead of isocyanates in step 6.
CCR-3 transfectant cells (CCR3/HEK293) were isolated and resuspended with assay buffer (20 mM HEPES, 125 mM NaCl, 5 mM KCl, 0.5 mM glucose, 1 mM CaCl2, 1 mM MgCl2, 0.1% BSA). After washing CCR3/HEK293 cells with assay buffer, cells were loaded with Fura-2/AM in assay buffer for 1 hour at room temperature. Cells were washed and resuspended with assay buffer at 5×10^6 cells/ml in assay buffer, and placed in a tissue culture plate (Falcon, no. 3296). Test compounds dissolved in DMSO were added to the wells, followed by eotaxin (10 nM at final concentration). Cells were excited at 340 nm and 380 nm in a fluorimeter (ARGUS50,FDSS2000, Hamamatsu Photonics) and the relative ratio of the fluorescence emitted at 510 nm was recorded. For a control, DMSO without a test compound was added. Intracellular calcium mobilization was calculated as described in Krogel C. et al., FEBS Let. (1989) 243, 41-46.

[2] = test system: bronchoconstriction provoked by acetylcholine; assay: Airway hyperreactivity: bronchoconstriction provoked by acetylcholine (murine asthma model); assay type: in vivo; conditions: OVA-immunized male BALB/c mice, intraperitoneally for 9 days, FIG. 2A
Experimental: (§1) Male BALB/c mice were immunized by an intraperitoneal injection of 10 μg OVA adsorbed to 1 mg aluminum hydroxide gel (alum). A booster injection of the same dose of alum-adsorbed OVA was given 5 days later. Unimmunized control mice received saline.
(§2) Twelve days after primary immunization, both the immunized and unimmunized mice were exposed to aerosolized antigen. Aerosolization of OVA was performed using a nose-only aerosol chamber adapted for mice. Animals were exposed for 10 minutes to 5 mg/ml OVA aerosolized by an ultrasonic nebulizer (NE-U12, Omron, Tokyo, Japan) driven by a vacuum pump. The antigen bronchoprovocation was repeated on day 16 and day 20 under the same conditions. Compound No. 298 (CPD No. 298) was dissolved in saline containing 2% DMSO and 2% Cremophore and administered intraperitoneally for 9 days, starting on the first day of antigen inhalation.
Twenty-four hours after the final aerosol exposure, bronchoconstriction was measured by the overflow method of Konzett and Rōssler. […] Bronchoconstriction was recorded on a flatbed recorder (Model FBR-252A, TOA Electronics Ltd., Tokyo, Japan). […]

[3] = test system: eosinophil infiltration to BALF; assay: Eosinophil infiltration to bronchoalveolar lavage fluid (BALF) in OVA-immunized mice; assay type: in vivo; conditions: OVA-immunized male BALB/c mice, intraperitoneally for 9 days, FIG. 2C
Experimental: as §1, §2
Immediately after the measurement of airway reactivity to acethycholine, BALF was collected by lavaging whole-lung three times with 0.7-ml aliquots of physiological saline containing 0.1% BSA via the tracheal cannula while gently massaging the thorax. The BALF recovered from one mouse was pooled, centrifuged, and the cells were resuspended in 100 μl saline containing 0.1% BSA. Cell numbers were determined using a hemocytometer and 2×10^4 cells were cytecetrifuged onto a glass slide. […]

Row | Ca^2+ mobilization 6.25 μg/ml (inhibition %) (CCR-3) | SMILES | clinical score of collagen-induced arthritis [1] | bronchoconstriction provoked by acetylcholine [2] | eosinophil infiltration to bronchoalveolar lavage fluid (BALF) [3]
1 | 48% | O=C(O)CCCN(CCCNC(=S)Nc1ccc(OCc2ccccc2)cc1)C1CCCc2ccccc21 (stereo not shown) [Compound 169] | – | – | –
2 | 45% | O=C(O)CCCN(CCCNC(=S)Nc1ccc(OC(F)(F)F)cc1)C1CCCc2ccccc21 (stereo not shown) [Compound 170] | – | – | –

More lines, now with the values behind:

Row | SMILES | Ca^2+ mobilization 6.25 μg/ml (inhibition %) (CCR-3) | clinical score of collagen-induced arthritis [1] | bronchoconstriction provoked by acetylcholine [2] | eosinophil infiltration to bronchoalveolar lavage fluid (BALF) [3]
3 | O=C(O)CCCN(CCCNC(=O)Nc1ccc(Br)cc1)C1CCCc2ccccc21 (stereo not shown) [Compound 60, 4-[[3-(4-Bromophenylureido)propyl](1,2,3,4-tetrahydro-1-naphthyl)amino]butanoic acid] | – | marked prevention in clinical score | – | –
4 | COc1ccc(NC(=S)NCCCN(CCCC(=O)O)C2CCCc3ccccc32)cc1 (stereo not shown) [Compound 168] | 23% | – | – | –
5 | CC[N+](CCCNC(=O)Nc1ccccc1)(CCc1ccc(Cl)cc1)Cc1ccc(Cl)cc1.[I-] (stereo not shown) [Compound 298, [3-(Phenylureido)propyl][2(4-chlorophenyl)ethyl](4 chlorobenzyl)ethylammonium iodide] | – | marked prevention in clinical score | Inhibition of bronchoconstriction | significantly suppressed eosinophil infiltration
